{"source": "paper PMC5773577", "about": "“Novel Miniature Membrane Active Lipopeptidomimetics against Planktonic and Biofilm Embedded Methicillin-Resistant Staphylococcus aureus” (Scientific Reports, 2018)", "key": {"[1]": {"system": "E. faecium (E-447), clinical isolate of vancomycin-resistant E. faecium", "assay": "organism not typed", "assay_type": "cell-based, Enterococcus faecium", "settings": "read-out: Minimum inhibitory concentration, MIC", "experimental": "(§1) The antibacterial activity was evaluated as MIC using slight modifications to a serial broth micro dilution method as reported previously[66],[67]. Briefly, to each treatment well of the 96-well plate (Corning Incorporated, USA) 10 μL of peptidomimetic/antibiotic was added and subsequently diluted serial 2-fold in 0.2% BSA (in 0.01% acetic acid). Then to each well of the first 11 columns 100 μL of mid-log phase bacterial suspension in MHB medium was added to get 2–5 × 10^5 CFU/mL. Cultures without test peptidomimetics/antibiotics were used as growth control. Uninoculated MHB medium was used as negative control. The microtitre plates were incubated overnight with agitation (180 rpm) at 37 °C. After 16–18 h incubation, absorbance was read at 600 nm using an ELISA plate reader (Molecular Devices, Sunnyvale, CA, USA). The experiments were carried out in duplicate on at least three different days."}, "[2]": {"system": "E. faecium (E-7846), clinical isolate of vancomycin-resistant E. faecium", "assay": "organism not typed", "assay_type": "cell-based, Enterococcus faecium", "settings": "read-out: Minimum inhibitory concentration, MIC", "experimental": "as §1"}, "[3]": {"system": "MRSA ATCC 33591", "assay": "Cell viability corresponding to calcein leakage experiment", "assay_type": "cell-based, Staphylococcus aureus", "settings": "calcein-loaded cells in PBS, 4 × MIC (melittin 10 μM), 2 h incubation", "method": "To assess the effect of designed peptidomimetics on membrane integrity of MRSA ATCC 33591 strain a calcein-AM dye release experiment was performed using the protocol described previously with slight modifications[51]. Briefly, exponential phase MRSA ATCC 33591 culture was prepared in MHB medium as mentioned earlier and adjusted to OD600 = 1 (~10^9 CFU/mL) in PBS (10 mM sodium phosphate, 150 mM NaCl, pH 7.4). Thereafter, the cells were incubated at 37 °C with calcein-AM (2 μg/mL) in 10% MHB medium for 2 h. The calcein-loaded cells were washed once and re-suspended in PBS to OD600 = 0.5 (~10^8 CFU/mL). The cells were diluted 100× in PBS to get 3–5 × 10^5 CFU/mL and were incubated with different concentrations of test agents at 37 °C in dark for 2 h. Subsequently, calcein fluorescence was measured via flow cytometry (Becton Dickinson (BD) FACS verse, San Jose, CA) with excitation and emission wavelengths of 488 nm and 530 ± 30 nm, respectively. For each sample, 10,000 cells were acquired. As a positive control, melittin (10 μM) was assayed under identical conditions. The experiment was repeated on two different days and mean ± S.D. is presented here. […]\nagar plates. The plates were incubated at 37 °C for 16-18 h and colonies were counted. […]"}, "[4]": {"system": "stationary phase MRSA ATCC 33591", "assay": "Bacterial killing kinetics, stationary phase cells in nutrient-depleted MHB medium", "assay_type": "cell-based, Staphylococcus aureus", "settings": "24 h", "experimental": "The kinetics of bacterial killing was determined against MRSA ATCC 33591 strain using drop plate method as described previously with slight modifications[51],[67],[70],[71]. The experiment was performed against exponential phase MRSA in normal medium and stationary phase MRSA in nutrient-depleted medium. For the preparation of nutrient-depleted medium, the primary MRSA ATCC 33591 culture in MHB medium was allowed to grow for 18 h at 37 °C and the cells were removed by centrifugation. The cell pellet was used for stationary phase culture and the spent medium supernatant was used as a nutrient-depleted medium. For obtaining exponential phase cells, MRSA was grown overnight in MHB and 100 μL suspension was used to inoculate 10 mL fresh MHB medium. The cells were incubated at 37 °C for 4–6 h to reach exponential phase.\nFor the experiments, both exponential and stationary phase cells were re-suspended separately in normal or nutrient-depleted mediums to OD600 = 0.5 (~10^8 CFU/mL). A 25 µL aliquot of this suspension was added to 475 μL of respective medium with or without test peptidomimetics/antibiotics in an eppendorf tube. […] The agar plates were incubated at 37 °C for 16–18 h and the colonies were counted (dilutions having colonies in the range of 10–100 were counted). […]"}, "[5]": {"system": "MRSA ATCC 33591 biofilm", "assay": "Biofilm formation inhibition, viable count assay", "assay_type": "cell-based, Staphylococcus aureus", "settings": "24 h biofilm formation inhibition, 2.5 μg/mL", "experimental": "For the experiment, a protocol as described previously was used with slight modifications. Briefly, desired concentrations of the test agents in PBS were added to the wells of a 96-well plate (100 μL). Thereafter, overnight grown stationary phase MRSA ATCC 33591 culture (~4 × 10^5 CFU/mL) in TSB medium (supplemented with 0.25% glucose and 0.5% NaCl) was added to the 96-well plates (100 μL). The plates were incubated at 37 °C without shaking for 24 h. After 24 h, the used medium was discarded and the biofilms formed were washed with PBS once. Subsequently, CV and AB assays were performed to quantify biomass and viability respectively, as described below:\nThe experiments were repeated on two different days and on each day 6 wells were used for a single treatment. Mean ± S.E. for both CV assay and AB assay is presented here. Corresponding to CV and AB assay the viability of cells upon treatment was also evaluated. Towards this 200 μL PBS was added to washed and treated wells of the 96-well plate and the contents were scraped thoroughly. The resulting bacterial suspension was sonicated briefly, diluted in PBS and plated on BHI agar plates. The agar plates were incubated at 37 °C for 16–24 h and CFUs were counted. Mean ± S.E. data from two independent experiments performed on two different days is shown here."}, "[6]": {"system": "48 h mature MRSA ATCC 33591 biofilms", "assay": "Cell viability of 48 h mature biofilm embedded cells", "assay_type": "cell-based, Staphylococcus aureus", "settings": "24 h treatment at 20 × MIC, mean ± S.D., two experiments, untreated 9.31 ± 0.11", "experimental": "For enumeration of cells after 48 h incubation, the medium was aspirated and the biofilms were washed with PBS once. Then 200 μL PBS was added to each well of the chamber slide and the chambers were thoroughly scraped with a pipette tip. The bacterial suspension obtained was plated on BHI agar after dilution in PBS as described above. The resulting CFU/mL from two different days were counted and plotted as mean ± S.D."}}}
{"smiles": "CN[C@H](CC(C)C)C(=O)N[C@H]1C(=O)N[C@@H](CC(N)=O)C(=O)N[C@H]2C(=O)N[C@H]3C(=O)N[C@H](C(=O)N[C@H](C(=O)O)c4cc(O)cc(O)c4-c4cc3ccc4O)[C@H](O)c3ccc(c(Cl)c3)Oc3cc2cc(c3O[C@@H]2O[C@H](CO)[C@@H](O)[C@H](O)[C@H]2O[C@H]2C[C@](C)(N)[C@H](O)[C@H](C)O2)Oc2ccc(cc2Cl)[C@H]1O", "note": "[VAN, vancomycin]", "values": [{"measurement": "MIC", "setting": "[1]", "result": "> 45.4", "unit": "µg/mL"}, {"measurement": "MIC", "setting": "[2]", "result": "> 45.4", "unit": "µg/mL"}, {"measurement": "log reduction in viability", "setting": "[3]", "result": "no reduction"}, {"measurement": "log reduction in CFU/mL", "setting": "[4]; 4 × MIC", "result": "~ 1.1 log"}, {"measurement": "log reduction in CFU/mL", "setting": "[4]; 10 × MIC", "result": "~ 1.1 log"}, {"measurement": "log reduction in viability compared to 24 h growth control", "setting": "[5]", "result": "> 3", "unit": "log"}, {"measurement": "remaining viable count", "setting": "[5]; mean ± S.E., two experiments, untreated 7.59 ± 0.08", "result": "1.44 ± 1.44", "unit": "log CFU/mL"}, {"measurement": "number of surviving cells", "setting": "[6]", "result": "9.08 ± 0.11", "unit": "log CFU/mL"}]}
